Measured values from patent US20110028539A1, “Biologically active taxane analogs and methods of treatment” (Tapestry Pharmaceuticals, Inc., priority 2007, published 2011).

Tests used:
[1] = tested on: Breast Cancer MCF-7 NCI-AR; test: Inhibition of cell growth, breast cancer MCF-7 NCI-AR (MDR+, wild type tubulin); assay type: cell-based; conditions: Homo sapiens
Source text: (§1) Of note is the top part of the molecule illustrated above, which may be seen to have a 9-keto structure and 10-β hydroxy or 10-β acetoxy stereochemistry. The present application provides novel taxane analogs having a stereochemistry at the C-9 and C-10 OH positions of the molecule.

[2] = tested on: Ovarian Carcinoma 1A9PTX10; test: Inhibition of cell growth, ovarian carcinoma 1A9PTX10 (MDR-, mutant tubulin); assay type: cell-based; conditions: Homo sapiens, 1A9/ptx-10
Source text: as §1

[3] = tested on: prostate DU145; test: MTS proliferation assay, DU145; assay type: cell-based; conditions: Homo sapiens, DU-145, 48 to 72 hrs
Experimental: (§2) Day 1: Cells were plated in appropriate growth medium at 5×10^3 per well in 100 ul in 96 well tissue culture plates, Falcon, one for each drug to be tested. Col 1 was blank; it contained no cells, just medium. The plates were incubated overnight at 37° C., 5% CO2 to allow attachment,
(§3) Day 2: Added 120 ul growth medium in wells of 96-well “dilution plates” (one for each drug) and let sit in 37° C. incubator for about 1 hr.
(§4) Thawed DMSO drug stocks (usually at 10 mM). Each drug was diluted 6 ul into a tube with 3 ml growth medium, to 20 uM.
(§5) Aspirated medium from col 12 of a dilution plate; added 200-300 ul of 20 uM drug to wells of col 12. Made serial dilution down this 96-well plate: for a […] dilution pattern, moved 60 ul from col 12 to col 11, mixed 4-5 times (using 8 place multi-pipettor), moved 60 ul to col 10, etc. stopping at col 3.
(§6) Moved 100 ul of medium+drug from dilution plate to a cell plate, i.e. col 1 from drug plate (blank=no cells) to col 1 of cell plate, etc. up to col 12. Col 2 contained cells with no drug. Col 3 had the lowest concentration of drug (0.005 nM) and col 12 had the highest drug concentration (10 uM).
(§7) Day 4 or 5: Terminated the assay 48 to 72 hrs after drug addition. […] When the color turned dark in control wells (col 2), and was still light in col 12, the absorbance at 490 nm was read on a plate reader; the results were used to calculate IC50.

[4] = Biological evaluation of separated isomers of Formula 48 (activity comparison); conditions: separated diastereoisomer vs mixture
[5] = tested on: bovine microtubule protein (tubulin plus MAP); test: In vitro ED50 MT polymerization study (DAPI fluorescence tubulin assay); assay type: biochemical; conditions: for ED50 Compound/ED50 Paclitaxel: ratio of tubulin polymerization ED50 to that of paclitaxel; for EC50: tubulin polymerization, 37° C., 30 minutes, maximum assembly = 25 μM paclitaxel
Experimental: In this tubulin binding assay, microtubule protein (MTP) is used as a substrate. The assay contains bovine tubulin plus microtubule associated proteins (MAP). MTP is polymerized into microtubules in the presence of DAPI (4′,6′-diamidino-2-phenylindole), a fluorescent compound. DAPI binds to tubulin; when microtubules are formed and there is an enhancement of fluorescence. The microtubule formation is measured as a function of time, using a fluorescence plate reader. […] The method used is based on the procedure published by Donna M. Barron, et al, “Fluorescence-based high-throughput assay for antimicrotuble drugs” Analytical Biochemistry, 315: 49-56, 2003, which is incorporated by reference in its entirety. The excitation wavelength, in that assay, was set at 370 nm and the emission wavelength was set at 450 nm for the DAN experiments.
A Bio-Tek FL 600 microplate Fluorescence used to measure the relative level of fluorescence in the DAPI assay.
Assays were conducted in 96-well plates. Each well contained a total volume of 0.1 mL consisting of PEM buffer (0.1 M Pipes, 1 mM EGTA, 1 mM MgCl2, pH 6.9), 0.2 mg bovine microtubule protein, and 10 μg of DAPI. […] The final DMSO concentration was 4%. The plates were incubated at 37° C. for 30 minutes and read in a fluorescence plate reader using an excitation wavelength of 360 nm and an emission wavelength of 460 nm. Fluorescence values were corrected for the sample without compound.
Experiments were done twice in triplicate. Results were subsequently combined and fit to a non-linear regression program.

[6] = tested on: Neuroblastoma SKNAS; test: MTS proliferation assay, SKNAS; assay type: cell-based; conditions: Homo sapiens, SK-N-AS, 48 to 72 hrs
Experimental: as §2, §3, §4, §5, §6, §7

[7] = tested on: uterine MESSA/Dox (MDR+); test: MTS proliferation assay, MESSA/Dox (MDR+); assay type: cell-based; conditions: Homo sapiens, MES-SA, 48 to 72 hrs
Experimental: as §2, §3, §4, §5, §6, §7

[8] = tested on: breast MDA435s; test: MTS proliferation assay, MDA435s; assay type: cell-based; conditions: 48 to 72 hrs
Experimental: as §2, §3, §4, §5, §6, §7

[9] = tested on: colon HT29; test: MTS proliferation assay, HT29; assay type: cell-based; conditions: Homo sapiens, HT-29, 48 to 72 hrs
Experimental: as §2, §3, §4, §5, §6, §7

[10] = tested on: head/neck KB; test: MTS proliferation assay, KB; assay type: cell-based; conditions: 48 to 72 hrs
Experimental: as §2, §3, §4, §5, §6, §7

[11] = tested on: head/neck KBV (MDR+); test: MTS proliferation assay, KBV (MDR+); assay type: cell-based; conditions: 48 to 72 hrs
Experimental: as §2, §3, §4, §5, §6, §7

[12] = tested on: head/neck FADU; test: MTS proliferation assay, FADU; assay type: cell-based; conditions: Homo sapiens, 48 to 72 hrs
Experimental: as §2, §3, §4, §5, §6, §7

[13] = tested on: prostate PC-3; test: MTS proliferation assay, PC-3; assay type: cell-based; conditions: prostate PC-3, MTS, 48 to 72 hrs
Experimental: as §2, §3, §4, §5, §6, §7

[14] = tested on: uterine MESSA; test: MTS proliferation assay, MESSA; assay type: cell-based; conditions: Homo sapiens, MES-SA, 48 to 72 hrs
Experimental: as §2, §3, §4, §5, §6, §7

[15] = tested on: Squamous Cell Carcinoma FADU; test: Inhibition of cell growth, squamous cell carcinoma FADU; assay type: cell-based; conditions: Homo sapiens, concentration 0.05 ug/mL
Source text: as §1

[16] = tested on: Neuroblastoma SK-N-AS; test: Inhibition of cell growth, neuroblastoma SK-N-AS; assay type: cell-based; conditions: Homo sapiens, concentration 0.1 ug/mL
Source text: as §1

For C=CC1O[C@H]2C[C@H]3OC[C@@]3(OC(C)=O)[C@H]3[C@H](OC(=O)c4ccccc4)[C@]4(O)C[C@H](OC(=O)[C@H](O)[C@@H](NC(=O)c5ccccc5)c5ccccc5)C(C)=C([C@H](OC(C)=O)[C@H](O1)[C@]23C)C4(C)C (some centres unmarked) [Formula 45], which inhibition at 0.5 µg/mL ([1]; MCF7, concentration 0.5 ug/mL) is on record?
The inhibition at 0.5 µg/mL was 45%.

And the inhibition at 1 µg/mL ([1]; MCF7, concentration 1.0 ug/mL)?
The inhibition at 1 µg/mL was 65%.

And the inhibition at 2 µg/mL ([1]; MCF7, concentration 2.0 ug/mL)?
Its inhibition at 2 µg/mL is 94%.

And the inhibition at 0.25 µg/mL ([2]; 1A9PTX10, concentration 0.25 ug/mL)?
The inhibition at 0.25 µg/mL was 93%.

What about the inhibition at 0.5 µg/mL ([2]; 1A9PTX10, concentration 0.5 ug/mL) of the same compound?
Its inhibition at 0.5 µg/mL is 96%.

For C=C[C@H]1O[C@H]2C[C@H]3OC[C@@]3(OC(C)=O)[C@H]3[C@H](OC(=O)c4ccccc4)[C@]4(O)C[C@H](OC(=O)[C@H](O)[C@H](CC(C)C)NC(=O)OC(C)(C)C)C(C)=C([C@H](OC(C)=O)[C@H](O1)[C@]23C)C4(C)C [Formula S-31], which IC50 [3] is on record?
Its IC50 is 60 nM.

And the “activity compared with the isomeric mixture (Formula 48)” value [4]?
Its value is “significantly more active than the isomeric mixture”.

And the “ED50 Compound/ED50 Paclitaxel” value [5]?
The value was 0.53.

What about the EC50 [5] of the same compound?
Its EC50 is 1580 ± 460 nM.

What about the IC50 [6] of the same compound?
The IC50 was 11 nM.

And the IC50 [7]?
Its IC50 is 44.8 nM.

What about the IC50 [8] of the same compound?
Its IC50 is 10 nM.

And the IC50 [9]?
The IC50 was 0.006 nM.

What about the IC50 [10] of the same compound?
The IC50 was 9.4 nM.

And the IC50 [11]?
The IC50 was 553 nM.

And the IC50 [12]?
The IC50 was 21 nM.

And the IC50 [13]?
Its IC50 is 0.03 nM.

What about the IC50 [14] of the same compound?
Its IC50 is 2.9 nM.

What does the source list for C/C(=C\c1csc(C)n1)[C@@H]1C[C@@H]2O[C@]2(C)CCC[C@H](C)[C@H](O)[C@@H](C)C(=O)C(C)(C)[C@@H](O)CC(=O)O1 [Epothilone B]?
ED50 Compound/ED50 Paclitaxel [5]: 1.11; EC50 [5]: 3310 ± 510 nM

Which results are given for CC(=O)O[C@H]1C(=O)[C@@]2(C)[C@H]([C@H](OC(=O)c3ccccc3)[C@]3(O)C[C@H](OC(=O)[C@H](O)[C@@H](NC(=O)c4ccccc4)c4ccccc4)C(C)=C1C3(C)C)[C@]1(OC(C)=O)CO[C@@H]1C[C@@H]2O [Paclitaxel, reference compound]?
inhibition at 40 µg/mL ([1]; MCF7, concentration 40 ug/mL): 55%; inhibition at 0.05 µg/mL [15]: 47%; inhibition at 5 µg/mL ([2]; 1A9PTX10, concentration 5 ug/mL): 55%; inhibition at 0.1 µg/mL [16]: 54%

For CC(=O)O[C@@]12CO[C@@H]1C[C@H](O)[C@@]1(C)C(=O)[C@H](O)C3=C(C)[C@@H](OC(=O)[C@H](O)[C@@H](NC(=O)OC(C)(C)C)c4ccccc4)C[C@@](O)([C@@H](OC(=O)c4ccccc4)[C@H]21)C3(C)C [Docetaxel], which “ED50 Compound/ED50 Paclitaxel” value [5] is on record?
The value was 1.07.

What about the EC50 [5] of the same compound?
The EC50 was 3180 ± 450 nM.
